Data: US9795131B2, “Sophorolactone compositions and uses thereof” (ECOVER CO-ORDINATION CENTER N.V., priority 2011, dated 2017)
Where “and” joins values, the source holds several entries; their conditions need not be identical. Equal values may be shown once.

Tests used:
[1] = Capacity of solvents to dissolve sophorolactone; assay type: physicochemical; details: percent sophorolactone dissolved by the solvent at room temperature
[2] = Phytotoxicity
[3] = Contact angle of deionized water on treated substrate, without or with rinses; assay type: physicochemical; details: for Contact angle Rinse 1 / Contact angle Rinse 2 / Contact angle Rinse 3 / Contact angle Rinse 4 / Contact angle Rinse 5 / Contact Angle: PVC, in ° (unit assumed); for Contact angle Rinse 1: after rinse 1; for Contact angle Rinse 2: after rinse 2; for Contact angle Rinse 3: after rinse 3; for Contact angle Rinse 4: after rinse 4; for Contact angle Rinse 5: after rinse 5; for Contact Angle: before rinsing, NM = not measurable due to an extremely low contact angle
Method: A test composition was made by dissolving 10% sophorolactone in ethanol. […] […] Substrates used were glass, polyvinylchloride (PVC) and leek leaves.
(§1) Several contact angle measurements were performed on each substrate.
The results obtained were for solutions wherein lactone was replaced by sodium lauryl sulphate (SPS), APG600 (a C10-C16 alkylpolyglucoside), wild type or crude sophorolipid (as obtained after fermentation, denominated as WT in Table 2), FAEO/PO nonionic (CAS 68439-51-0, C12-14 fatty alcohol, 5 mole EO, 4 mol EO), modified FAEO/PO (C8/10 fatty alcohol+1 PO+22 EO (2-hydroxydecyl)-ether) and siloxane polyether copolymer (Silwet Hydrostable 68). […]

[4] = as above; assay type: physicochemical; details: 1% active; for Contact angle Rinse 1: after rinse 1; for Contact angle Rinse 1 / Contact angle Rinse 2 / Contact angle Rinse 3 / Contact Angle: in ° (unit assumed); for Contact angle Rinse 2: after rinse 2; for Contact angle Rinse 3: after rinse 3; for Contact Angle: before rinsing, NM = not measurable due to an extremely low contact angle
Method: A test composition was made by dissolving 10% sophorolactone in ethanol. […] Different substrates are wetted with said 1% lactone dispersion and dried in a climate chamber at 40° C. Substrates used were glass, polyvinylchloride (PVC) and leek leaves.
as §1
The results obtained were for solutions wherein lactone was replaced by sodium lauryl sulphate (SPS), APG600 (a C10-C16 alkylpolyglucoside), wild type or crude sophorolipid (as obtained after fermentation, denominated as WT in Table 2), FAEO/PO nonionic (CAS 68439-51-0, C12-14 fatty alcohol, 5 mole EO, 4 mol EO), modified FAEO/PO (C8/10 fatty alcohol+1 PO+22 EO (2-hydroxydecyl)-ether) and siloxane polyether copolymer (Silwet Hydrostable 68).
This experiment was repeated with different substrates and different 1% active surfactant solutions as elaborated in Table 2.

[5] = Antifogging test; assay type: physicochemical; details: mirror treated with 10% solution in water of 10% sophorolactone in ethanol, dried
Method: The other half of the mirror was treated with a 10% solution of ethanol.

[6] = Allergic reaction to house dust mite excrements
[7] = system: Propionibacterium acnes; test: Effectiveness against acne bacterium; assay type: cell-based
[8] = system: dust mite proteins; test: Denaturation of dust mite proteins; assay type: biochemical
[9] = Film forming properties; assay type: physicochemical
From the text: This experiment was repeated with pieces of leek with the same outcome. […] The latter destructive detection method necessitated several PVC strips to be used, each strip lasting an extra rinse cycle before detection.

[10] = Sensitivity to hard water; assay type: physicochemical
[11] = Contact angle of isoamyl lactate / partial sophorolipid hydrolysate mixtures; assay type: physicochemical; details: room temperature, sessile drop; FIG. 4
Method: The contact angle of combinations of isoamyl lactate (Galactic) with partial sophorolipid hydrolysate (0.7 mol equivalent) on white PVC-strips (Leneta) was measured at room temperature with a Krüss DSA100 tensiometer using the sessile drop method. Each component of the mixtures is at maximum 1% active matter. Results are evaluated with the software Statistica.

[12] = OK / NOK; cited from earlier work
[13] = Solubility in water; assay type: physicochemical

With `CC(=O)O` [Glacial acetic] the “% lactone dissolved” value [1] was 23.65%.

For `CCOC(C)=O` [Ethylacetate], the “% lactone dissolved” value [1] was 3.96%.

With `CCCCOC(=O)C(C)O` (stereo not drawn) [Butyl lactate] the “% lactone dissolved” value [1] was 20%.

With `OCC(O)CO` [Glycerol] the “% lactone dissolved” value [1] was less than 1%.

For `CCCCCCO` [Hexanol], the “% lactone dissolved” value [1] was 2.65%.

For `CCCCCCC(O)CO` (stereo not drawn) [Caprylyl Glycol], the “% lactone dissolved” value [1] was 8.65%.

For `OCCCc1ccccc1` [Hydrocinnamylalcohol], the “% lactone dissolved” value [1] was 32.5%.

In the case of sophorolactone, the phytotoxicity [2] is reported as “not phytotoxic”, the “contact angles and rinse resistance” value ([3]; 1% lactone dispersion made using hard water) is reported as “equally low contact angles and excellent rinse resistance” and the “Contact angle Rinse 1” value ([3]; 0.1% Lactone) is reported as 66 and 67 and 79. The “Contact angle Rinse 2” value ([3]; 0.1% Lactone) was 90 and 80, the “Contact angle Rinse 1” value ([3]; 1% active in hard water (200 ppm CaCO3)) was 19 and 20 and 21 and the “Contact angle Rinse 2” value ([3]; 1% active in hard water) was 14 and 15. For the same molecule, the “Contact angle Rinse 3” value ([3]; 1% active in hard water) was 12 and 17 and 14, the “Contact angle Rinse 4” value ([3]; 1% active in hard water) was 11 and 12 and the “Contact angle Rinse 5” value ([3]; 1% active in hard water) was 12 and 11 and 10. The “Contact angle Rinse 2” value ([3]; 1% active) was 0, the “Contact angle Rinse 2” value ([3]; 1% active, listed as lactone) was 8.4 and 16 and the “Contact Angle” value ([3]; 1% active) was 7 and 10. For the same molecule, the “wetting by water after rinses” value ([3]; hydrophobic surface such as PVC and leek) was “excellent wetting by water even after 5 rinses”, the “Contact angle Rinse 1” value ([4]; glass) was 15.3 and 10 and 12 and the “Contact angle Rinse 2” value ([4]; glass) was 24.4 and 30 and 25. The “Contact angle Rinse 3” value ([4]; glass) was 23.5 and 27.8 and 25, the “Contact Angle” value ([4]; glass) was 14.2 and 14.1 and 11.3 and 10 and the “Contact angle Rinse 1” value ([4]; leek) was 25 and 26 and 28. For the same molecule, the “Contact Angle” value ([4]; leek) was 28 and 27 and 25, the “condensation or fogging above boiling water” value [5] was “not visually covered with condensation water and retained its mirror properties” and the “allergic reaction to excrements of house dust mites” value [6] was “effectively reduces the allergic reaction”. The “effectiveness against Propionibacterium acnes” value [7] was “effective”, the “denaturation of dust mite proteins” value [8] was “denatures dust mite proteins” and the stability of dispersion ([9]; 1% sophorolactone dispersion in water made from 10% solution in ethanol) was “remained stable overnight at room temperature without visual separation”. The “removability of dried layer by water” value ([9]; 10% sophorolactone in benzyl alcohol applied to a PVC sheet, air dried) was “virtually impossible to remove with running tap water or with repeated rinsing with water”, the “repeated rinse and dry cycles withstood by layer” value ([9]; PVC sheet, 1% sophorolactone dispersion, air dried) was “at least 5 cycles” and the “sensitivity to hard water” value [10] was “insensitive to hard water”.

In the case of `OCCc1ccccc1` [Phenetyl alcohol], the “% lactone dissolved” value [1] is reported as 22%.

In the case of `C=C(C)[C@H]1CC=C(C)CC1` [D-limonene], the “% lactone dissolved” value [1] is reported as 8.5%.

For `O=C1OCC(CO)O1` (stereo not drawn) [Glycerincarbonate], the “% lactone dissolved” value [1] was less than 1%.

For `CCCCCCCCCCCCOS(=O)(=O)[O-].[Na+]` [SLS, sodium lauryl sulphate, reference compound], the “Contact angle Rinse 1” value ([3]; 1% active, sulphate) was 72 and 100 and 96, the “Contact angle Rinse 2” value ([3]; 1% active, sulphate) was 102 and 94 and 90 and the “Contact angle Rinse 3” value ([3]; 1% active, sulphate) was 64 and 65. The “Contact angle Rinse 4” value ([3]; 1% active, sulphate) was 75 and 84 and 102, the “Contact angle Rinse 5” value ([3]; 1% active, sulphate) was 100 and 99 and 101 and the “Contact Angle” value ([3]; 1% active) was 1. The “Contact angle Rinse 2” value ([4]; glass, sulphate) was 33.2 and 64.2 and 33.8, the “Contact angle Rinse 3” value ([4]; glass, sulphate) was 37.3 and 40.3 and 51.8 and the “Contact angle Rinse 4” value ([4]; glass, after rinse 4, sulphate) was 50.8 and 36.2. The “Contact angle Rinse 5” value ([4]; glass, after rinse 5, sulphate) was 34 and 38 and 30.

For `CCCOCC(C)O` (stereo not drawn) [PNP, 1-propoxy 2-propanol], the “% lactone dissolved” value [1] was 15.57%.

For `CC(C)CCOC(=O)C(C)O` (stereo not drawn) [Isoamyl lactate], the “% lactone dissolved” value [1] is listed as 21.2%, the “concentration at maximal PVC wetting” value [11] is listed as roughly 1.2% and the GRAS status [12] is listed as “NOK”. For the same molecule, the solubility in water [13] was no more than 1%.

In the case of `OCCCO` [1.3 propanediol], the “% lactone dissolved” value [1] is reported as 2.75%.

In the case of `OCCOc1ccccc1` [Phenoxyethanol], the GRAS status [12] is given as “NOK”.

In the case of `CCCCOCC(C)O` (stereo not drawn) [PNB Henkel], the “% lactone dissolved” value [1] is reported as 6.73%.

With Glycerin formal the “% lactone dissolved” value [1] was 35%.

In the case of `CC(C)O` [Isopropanol], the “% lactone dissolved” value [1] is reported as 2.2%.

For `CO[C@H]1CO[C@H]2[C@@H]1OC[C@H]2OC` [Dimethyl isosorbide], the “% lactone dissolved” value [1] is given as 31.89% and the GRAS status [12] is given as “NOK”.

For `CC(O)CO` (stereo not drawn) [Propylene glycol], the “% lactone dissolved” value [1] was 9.05%.

In the case of `CC1(C)OCC(CO)O1` (stereo not drawn) [2-3-o-isopropyliden glycerin, (2,2-dimethyl-[1,3]dioxolan-4-yl)-methanol], the GRAS status [12] is listed as “NOK”.

For `Cc1ccc(C(C)C)c(O)c1` [Thymol, thymol, reference compound], the “retention of active on PVC substrate” value ([9]; 1% dispersion of 10% lactone, 10% thymol, 80% ethanol solution, smell and sulfuric acid colour) was “remained fixed on the PVC substrate for several rinses”.

In the case of `COC(C)COC(C)CO` (stereo not drawn) [DPM, dipropyleneglycol methyl ether], the “% lactone dissolved” value [1] is listed as 28.93% and the GRAS status [12] is listed as “NOK”.

With `OCc1ccccc1` [Benzylalcohol] the “% lactone dissolved” value [1] was 67.35%.

With `CCO` [Ethanol] the “% lactone dissolved” value [1] was 7.5%.
